Laboratory results taken from ChEMBL document CHEMBL1201862, “PubChem BioAssay data set” (2004).
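96-well plates; 48 h exposure; 5 concentrations. Endpoints by linear interpolation between flanking doses. Not reached: highest tested concentration assigned. GI50 is the concentration that inhibits growth by half.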 Calls of active or inactive are those of the source. Rule as the data show it: active = GI50 up to about 1.1 µM and inactive = higher.

Key:
Assay in all cases: NCI anticancer screen, dose series, 48 h
[1] = test system: 786-0
[2] = test system: A549
[3] = test system: BT-549
[4] = test system: COLO 205
[5] = test system: EKVX
[6] = test system: HCT-116
[7] = test system: HCT-15
[8] = test system: HT-29
[9] = test system: MCF7
[10] = test system: MDA-MB-435
[11] = test system: MOLT-4
[12] = test system: NCI-H226
[13] = test system: NCI-H23
[14] = test system: NCI-H460
[15] = test system: NCI-H522
[16] = test system: OVCAR-5
[17] = test system: SK-OV-3
[18] = test system: SNB-75
[19] = test system: UACC-257
[20] = test system: UO-31

SMILES | GI50 [1] | GI50 [2] | GI50 [3] | GI50 [4] | GI50 [5] | GI50 [6] | GI50 [7] [µM] | GI50 [8] | GI50 [9] | GI50 [10] | GI50 [11] | GI50 [12] | GI50 [13] | GI50 [14] | GI50 [15] | GI50 [16] | GI50 [17] | GI50 [18] | GI50 [19] | GI50 [20]
COC1=CC(=O)C(C2CC(=O)c3c(O)cc(O)cc3O2)=CC1=O (stereo not given) | 13.1 µM (inactive) | 39.9 µM (inactive) | 19.8 µM (inactive) | 17.9 µM (inactive) | 16.6 µM (inactive) | 16.1 µM (inactive) | 23.3 | > 45.1 µM (inactive) | 22.9 µM (inactive) | 16.2 µM (inactive) | 1.96 µM (inactive) | 19.4 µM (inactive) | 20.5 µM (inactive) | 23 µM (inactive) | 15.4 µM (inactive) | 19.6 µM (inactive) | 36.8 µM (inactive) | 23.6 µM (inactive) | 18.5 µM (inactive) | 18 µM (inactive)
CC[C@@]1(O)C(=O)OCc2c1cc1n(c2=O)Cc2c-1nc1ccc(O)cc1c2CC[Si](C)(C)C | < 0.001 µM (active) | 0.00366 µM (active) | 0.0205 µM (active) | 0.149 µM (active) | 0.041 µM (active) | < 0.001 µM (active) | 0.102 | 0.012 µM (active) | < 0.001 µM (active) | 0.00766 µM (active) | < 0.001 µM (active) | 0.0194 µM (active) | < 0.001 µM (active) | < 0.001 µM (active) | 0.00291 µM (active) | 0.0272 µM (active) | < 0.001 µM (active) | < 0.001 µM (active) | 0.00275 µM (active) | 0.00497 µM (active)
CCc1c(CNc2ccc(C(=O)NC(CC(=O)O)C(=O)O)cc2)ccc2nc(N)nc(N)c12 (stereo not given) | < 0.01 µM (active) | < 0.0169 µM (active) | 25.4 µM (inactive) | 16.7 µM (inactive) | > 54.6 µM (inactive) | < 0.01 µM (active) | < 0.0164 | < 0.0178 µM (active) | < 0.0182 µM (active) | < 0.01 µM (active) | < 0.0182 µM (active) | > 100 µM (inactive) | < 0.0291 µM (active) | < 0.0158 µM (active) | 0.914 µM (active) | 1.82 µM (inactive) | > 20 µM (inactive) | 3.52 µM (inactive) | 5.19 µM (inactive) | 0.75 µM (active)
CCOC(=O)c1cc(C2CCN(c3ccccc3)C2=O)c(C(=O)/C=C(/C)N)[nH]1 (stereo not given) | 10.2 µM (inactive) | 25.6 µM (inactive) | > 100 µM (inactive) | > 100 µM (inactive) | 23.6 µM (inactive) | 12.7 µM (inactive) | > 100 | 12.9 µM (inactive) | 54.6 µM (inactive) | > 100 µM (inactive) | 39.6 µM (inactive) | 20.5 µM (inactive) | 92.3 µM (inactive) | 33.2 µM (inactive) | 18.5 µM (inactive) | 46.3 µM (inactive) | 16.6 µM (inactive) | 8.05 µM (inactive) | 94.8 µM (inactive) | 49.2 µM (inactive)
CC1=CC(O)CC(C)(C)C1/C=C/C(C)=C/C=C/C(C)=C/C=C/C=C(C)/C=C/C=C(C)/C=C/C1=C(C)CC(O)CC1(C)C (stereo not given) | 19.1 µM (inactive) | 35.6 µM (inactive) | 17.8 µM (inactive) | 20.7 µM (inactive) | 79.3 µM (inactive) | 15.7 µM (inactive) | 19.7 | 14.9 µM (inactive) | 27.7 µM (inactive) | 17.5 µM (inactive) | 20.9 µM (inactive) | 21.4 µM (inactive) | 24.7 µM (inactive) | 32.6 µM (inactive) | 15.2 µM (inactive) | 34.8 µM (inactive) | 40.8 µM (inactive) | 26.5 µM (inactive) | 24.9 µM (inactive) | 34 µM (inactive)
O=[N+]([O-])C1=Cc2c(O)ccc(O)c2C2OC=CC12 (stereo not given) | 17.9 µM (inactive) | 21 µM (inactive) | 14.6 µM (inactive) | 27 µM (inactive) | 19.5 µM (inactive) | 15.9 µM (inactive) | 18.5 | 19.6 µM (inactive) | 13.6 µM (inactive) | 2.4 µM (inactive) | 3.6 µM (inactive) | 30.7 µM (inactive) | 15.5 µM (inactive) | 19.7 µM (inactive) | 3.83 µM (inactive) | 23.5 µM (inactive) | > 60.4 µM (inactive) | 21.6 µM (inactive) | 15 µM (inactive) | 14.6 µM (inactive)
CCOC(=O)c1nc2cc(Cl)ccc2[nH]c1=O | > 100 µM (inactive) | > 100 µM (inactive) | > 100 µM (inactive) | > 100 µM (inactive) | > 100 µM (inactive) | > 100 µM (inactive) | > 100 | > 100 µM (inactive) | > 100 µM (inactive) | > 100 µM (inactive) | > 100 µM (inactive) | > 100 µM (inactive) | > 100 µM (inactive) | 53.7 µM (inactive) | > 100 µM (inactive) | > 100 µM (inactive) | > 100 µM (inactive) | < 0.01 µM (active) | > 100 µM (inactive) | > 100 µM (inactive)
O=CC1OC(=O)c2cc(O)c(O)c(O)c2-c2c(cc(O)c(O)c2O)C(=O)OC1C1OC(=O)c2cc(O)c(O)c(O)c2-c2c(O)c(O)c3oc(=O)c4c(c(O)c(O)c5oc(=O)c2c3c54)-c2c(cc(O)c(O)c2O)C(=O)OCC1O (stereo not given) | 18.7 µM (inactive) | 24.9 µM (inactive) | > 100 µM (inactive) | 26 µM (inactive) | 16.9 µM (inactive) | 16.9 µM (inactive) | 15.7 | 13.4 µM (inactive) | 19.6 µM (inactive) | 22.3 µM (inactive) | 26.1 µM (inactive) | 32.4 µM (inactive) | 30.8 µM (inactive) | 20.7 µM (inactive) | 18.2 µM (inactive) | 29.6 µM (inactive) | 50.6 µM (inactive) | 13.9 µM (inactive) | 46.2 µM (inactive) | 23.4 µM (inactive)
O=C(NCCCCCCCCNC(=O)c1cc(-c2ccccc2)nc2ccccc12)c1cc(-c2ccccc2)nc2ccccc12 | 41.7 µM (inactive) | > 100 µM (inactive) | 57.7 µM (inactive) | > 100 µM (inactive) | > 100 µM (inactive) | > 100 µM (inactive) | > 100 | > 100 µM (inactive) | > 100 µM (inactive) | > 100 µM (inactive) | > 100 µM (inactive) | > 100 µM (inactive) | > 100 µM (inactive) | > 100 µM (inactive) | 87.7 µM (inactive) | > 100 µM (inactive) | > 100 µM (inactive) | 38.6 µM (inactive) | > 100 µM (inactive) | > 100 µM (inactive)
O=C(Nc1ccc(Cl)cc1)NS(=O)(=O)c1coc2cc(F)ccc2c1=O | > 100 µM (inactive) | > 100 µM (inactive) | > 100 µM (inactive) | > 100 µM (inactive) | > 100 µM (inactive) | > 10 µM (inactive) | 19.9 | > 100 µM (inactive) | > 100 µM (inactive) | 30.6 µM (inactive) | > 100 µM (inactive) | > 100 µM (inactive) | > 100 µM (inactive) | > 100 µM (inactive) | 67.9 µM (inactive) | > 100 µM (inactive) | > 100 µM (inactive) | > 100 µM (inactive) | > 100 µM (inactive) | 86.3 µM (inactive)
COC1CC(C)(NC(=O)C(F)(F)F)C2OC(c3ccccc3)OCC2O1 (stereo not given) | > 100 µM (inactive) | > 100 µM (inactive) | > 100 µM (inactive) | > 100 µM (inactive) | > 100 µM (inactive) | > 100 µM (inactive) | > 100 | 47 µM (inactive) | > 100 µM (inactive) | > 100 µM (inactive) | 47.3 µM (inactive) | > 100 µM (inactive) | > 100 µM (inactive) | > 100 µM (inactive) | > 100 µM (inactive) | > 100 µM (inactive) | > 100 µM (inactive) | > 100 µM (inactive) | > 100 µM (inactive) | > 100 µM (inactive)
CN(O)C(=O)/C=C/c1ccc(OCc2cccc(Cl)c2)cc1 | 18.7 µM (inactive) | 21.2 µM (inactive) | 21.8 µM (inactive) | 28.9 µM (inactive) | 26.5 µM (inactive) | 16.8 µM (inactive) | 12.9 | 18 µM (inactive) | 48.6 µM (inactive) | 32.2 µM (inactive) | 8.77 µM (inactive) | 21.4 µM (inactive) | 16.3 µM (inactive) | 16.5 µM (inactive) | 25.7 µM (inactive) | 39.7 µM (inactive) | 25.6 µM (inactive) | 26.4 µM (inactive) | 51.8 µM (inactive) | 10.1 µM (inactive)
CN(Cc1cnc2nc(N)nc(N)c2n1)c1ccc(C(=O)NCCCS(=O)(=O)O)cc1 | > 100 µM (inactive) | > 100 µM (inactive) | > 100 µM (inactive) | > 100 µM (inactive) | > 100 µM (inactive) | 83.9 µM (inactive) | > 100 | > 100 µM (inactive) | > 100 µM (inactive) | > 100 µM (inactive) | > 100 µM (inactive) | > 100 µM (inactive) | > 100 µM (inactive) | > 100 µM (inactive) | > 100 µM (inactive) | > 100 µM (inactive) | > 100 µM (inactive) | > 100 µM (inactive) | > 100 µM (inactive) | > 100 µM (inactive)
Oc1cccc2c1[nH]c1c(C3=C[C@@]4(O)CC/C=C\CCCCN5CC[C@@H]3[C@]3(CC6/C=C\CCCCN6[C@H]34)C5)nccc12 (stereo not given in full) | 0.659 µM (active) | 2.04 µM (inactive) | 1.81 µM (inactive) | 0.787 µM (active) | 1.23 µM (inactive) | 1.38 µM (inactive) | 0.718 | 0.796 µM (active) | 0.7 µM (active) | 0.798 µM (active) | 0.64 µM (active) | 2.21 µM (inactive) | 0.912 µM (active) | 0.65 µM (active) | 1.01 µM (active) | 1.07 µM (active) | 1.94 µM (inactive) | 0.946 µM (active) | 1.68 µM (inactive) | 1.44 µM (inactive)
